{"source": "paper PMC8389655", "about": "“Au2phen and Auoxo6, Two Dinuclear Oxo-Bridged Gold(III) Compounds, Induce Apoptotic Signaling in Human Ovarian A2780 Cancer Cells” (Biomedicines, 2021)", "key": {"Bax": {"system": "Bax", "assay": "Western blot of Bax content", "assay_type": "cell-based, human", "conditions": "A2780, 48 h at 72 h IC50 dose, compared to controls", "protocol": "After drug treatments, cells were lysed in RIPA buffer supplemented with a cocktail of protease and phosphatase inhibitors. […] To favor the electrophoretic separation, 25% sample loading buffer (SLB) was added to the cell lysates. Here, 20 µg samples of proteins from controls and treated cells were loaded on 4–20% pre-cast SDS-PAGE gels and blotted onto PVDF membranes. Primary antibodies Bcl-2 (1:1000 dilution,#sc-7382, Santa Cruz, Dallas, Texas USA), Bax (1:1000 dilution, #sc-493, Santa Cruz), OXPHOS cocktail (1:1000 dilution, #ab110413, AbCam, Cambridge, UK), citrate synthase (1:1000 dilution, #sc-515640, Santa Cruz), ASK1 (1:1000 dilution, #sc-390275, Santa Cruz), phospho(Thr838)-ASK1 (1:1000 dilution, #CPA6042, Cohesion Biosciences, London, UK), AKT (1:1000 dilution, #sc-5298, Santa Cruz), and phospho(Ser473)-AKT (1:1000 dilution, #GTX128414, GeneTex, Irvine, CA, USA) were added to 2% non-fat dry milk in PBS-tween solution, while PVDF membranes were incubated overnight at 4 °C. Then, membranes were treated with horseradish peroxidase (HRP)-conjugated secondary antibodies (1:5000 dilution, Santa Cruz) and immunoreactive bands were detected with an ECL kit detection system on an Amersham Imager 600 (GE Healthcare, Chicago, IL, USA). For the quantification, a densitometric analysis of the bands was performed using ImageJ2 software version 2.0.0-rc-64 [23]. The intensities of the immunostained bands were normalized on the Coomassie brilliant blue R-250-stained total protein from the same PVDF membrane."}, "[1]": {"system": "mitochondrial respiration of A2780 cells", "assay": "Oxygen consumption rate (Clark-type O2 electrode)", "assay_type": "cell-based, human", "conditions": "A2780, 24 h at 72 h IC50 dose, compared to controls", "protocol": "The analysis of the oxygen consumption rate (OCR) was performed using a Clark-type O2 electrode inserted in a thermostated airtight chamber (Oxygraph Plus System, Hansatech Instruments, King’s Lynn, Norfolk, UK). Briefly, control and treated cells (12 and 24 h) were trypsinized, washed with PBS, and suspended in culture medium to measure the steady state OCR for 10 min. The OCR values, expressed as nmol of consumed O2/mL/min, were normalized to the cellular protein content. To evaluate the response of complex I, complex II/III, and ATP-synthase-driven OCRs in the presence or absence of gold-treatment, we used the protocol described by Baracca et al.. Cells were trypsinized, washed, and resuspended in buffer containing sucrose, TRIS-HCl, MgSO4, EDTA, and KH2PO4. Cell suspension was treated with digitonin to allow cell membrane permeabilization. To stimulate complex I, 250 mM glutamate/malate was added, whereas to stimulate complex II, 250 mM succinate was added (state 2 respiration). Then, to induce ATP-synthase-driven mitochondrial respiration, 10 mM ADP was added (state 3 respiration). To estimate the mitochondrial respiratory capacity, defined as the respiratory control ratio (RCR), state 3/state 2 ratios were calculated for control and treated cells."}, "caspase-8": {"system": "caspase-8", "assay": "FAM-FLICA caspase-8 activation, flow cytometry", "assay_type": "cell-based, human", "conditions": "A2780, 72 h at 72 h IC50 dose, compared to controls", "protocol": "(§1) In addition, caspase-3, caspase-8, and caspase-9 activation was assessed in treated and untreated cells. Likewise, cells were trypsinized, washed with PBS, and suspended in FAM-FLICATM caspase solution (FAM-DEVD-FMK caspase FLICA kit, ImmunoChemistry Technologies, MN 55431 USA) for 30 min at 37 °C. Cells were then washed twice with PBS and analyzed using a FACSCantoII flow cytometer (BD Biosciences, New Jersey, USA)."}, "caspase-9": {"system": "caspase-9", "assay": "FAM-FLICA caspase-9 activation, flow cytometry", "assay_type": "cell-based, human", "conditions": "A2780, 72 h at 72 h IC50 dose, compared to controls", "protocol": "as §1"}, "[2]": {"system": "thioredoxin reductase (TrxR)", "conditions": "for effect on TrxR enzyme activity: A2780, 12 h treatment at 72 h IC50 dose; for inhibition of TrxR enzyme activity: A2780, 24 h treatment at 72 h IC50 dose, vs controls", "protocol": "The total thioredoxin reductase (TrxR) activity was measured using a commercial colorimetric assay kit (#CS0170, Sigma Aldrich, St. Louis, MO, USA) based on the reduction of 5,5′-dithiobis (2-nitrobenzoic) acid (DTNB) with NADPH to 5-thio-2 nitrobenzoic acid (TNB) at 412 nm. This kit also contains an inhibitor solution of mammalian thioredoxin reductase. Since several enzymes present in the biological sample can reduce DTNB, the specific inhibitor is used to determine the reduction of DTNB due only to TrxR activity. […] Cells were lysed with RIPA buffer (50 mM Tris-HCl pH 7.0, 1% (v/v) NP-40, 150 mM NaCl, 2 mM ethylene glycol bis(2-aminoethyl ether)tetra-acetic acid, 100 mM NaF) supplemented with a cocktail of protease inhibitors. The protein concentrations in the cell lysates were determined by Bradford protein assay kit (Bio-Rad Laboratories, Hercules, USA) according to the manufacturer’s instructions and then 30 µg samples of proteins were used for the assay. Results were normalized to the cellular protein content."}, "A2780 cells": {"system": "A2780 cells", "assay": "Annexin V/propidium iodide flow cytometry (apoptosis)", "assay_type": "cell-based, human", "conditions": "A2780, 72 h exposure at IC50 dose", "protocol": "The evaluation of cell death was carried out using the TACS annexin V/propidium iodide staining kit (Trevigen, Gaithersburg, MD, USA) according to the manufacturer’s instructions. […] After 72 h, controls and treated cells were trypsinized, washed with PBS buffer, and suspended in the staining solution for 15 min at room temperature in the dark. Cells were then washed and immediately analyzed by FACSCantoII flow cytometer (BD Biosciences, New Jersey, USA). Cells were gated and plotted on dot plots showing the distribution of annexin V-positive cells (early apoptotic cells) and annexin V/propidium iodide-positive cells (late apoptotic cells)."}, "[3]": {"system": "PNT1 (human normal prostate epithelium) cells", "assay": "MTT antiproliferative assay on PNT1 cells", "assay_type": "cell-based", "conditions": "for IC50: 72 h of treatment, MTT assay, mean ± SD of three experiments, read-out: Half-maximal inhibitory concentration (IC50), PNT1; for IC50 for PNT1 higher than for A2780 (fold): ratio of 72 h IC50 PNT1 / A2780", "protocol": "The inhibition of cell proliferation by Au2phen, Auoxo6, and AuL12 on A2780 cell line was evaluated through MTT (3-(4,5-dimethylthiazol-2-yl)-2,5-diphenyltetrazolium bromide) test. Viable cells can convert MTT into formazan, which is coloured and detectable at 595 nm. Exponentially growing cells were seeded in 96 well-microplates at a density of 8 × 10^3 for 24 h and then gold compounds were added in fresh RPMI medium at concentrations ranging from 0.003 to 100 µM and incubated for 72 h. On the day of the test, cells were treated with 0.5 mg/mL MTT for 1 h at 37 °C. Following precipitation, blue formazan was dissolved in DMSO, and the optical density was read in a microplate reader interfaced with Microplate Manager/PV version 4.0 software (BioRad Laboratories, Hercules, USA). From the absorbance measurements, the half-maximal inhibitory concentration (IC50) value of each compound on A2780 cells was calculated using GraphPad Prism software version 6.0 (Graphpad Holdings, LLC, USA). The same protocol was applied on non-tumor cell lines, i.e., HEK and PNT1 cells."}}, "data": [{"smiles": "Cc1ccc2ccc3ccc(C)[n+]4c3c2[n+]1[Au-]41[O][Au-]2([O]1)[n+]1c(C)ccc3ccc4ccc(C)[n+]2c4c31.F[P-](F)(F)(F)(F)F.F[P-](F)(F)(F)(F)F", "note": "[Au2phen, ((2,9-dimethyl-1,10-phenanthroline)2Au2(µ-O)2)(PF6)2]", "values": [{"measurement": "increase of proapoptotic Bax protein", "setting": "Bax", "result": "about 29%"}, {"measurement": "reduction of oxygen consumption rate (OCR)", "setting": "[1]", "result": 26.8, "unit": "%"}, {"measurement": "cells showing caspase-8 activation", "setting": "caspase-8", "result": "around 50%"}, {"measurement": "cells showing caspase-9 activation", "setting": "caspase-9", "result": 60, "unit": "%"}, {"measurement": "effect on TrxR enzyme activity", "setting": "[2]", "result": "clear tendency to inhibit the TrxR activity, even if the changes were not statistically significant"}, {"measurement": "inhibition of TrxR enzyme activity", "setting": "[2]", "result": "~ 26%"}, {"measurement": "increase of annexin V fluorescence intensity vs untreated control cells", "setting": "A2780 cells", "result": 6, "unit": "fold"}, {"measurement": "IC50", "setting": "[3]", "result": "11.8 ± 0.25", "unit": "µM"}, {"measurement": "IC50 for PNT1 higher than for A2780 (fold)", "setting": "[3]", "result": "about 14 fold"}]}, {"smiles": "CCOC(=O)CN(C)C1=[S+][Au-]([Br])([Br])[S]1", "note": "[AuL12, dibromo(ethylsarcosinedithiocarbamate)gold(III), reference compound]", "values": [{"measurement": "increase of proapoptotic Bax protein", "setting": "Bax", "result": "~34", "unit": "%"}, {"measurement": "reduction of oxygen consumption rate (OCR)", "setting": "[1]", "result": 18, "unit": "%"}, {"measurement": "cells showing caspase-8 activation", "setting": "caspase-8", "result": "~ 30%"}, {"measurement": "cells showing caspase-9 activation", "setting": "caspase-9", "result": "~ 30%"}, {"measurement": "effect on TrxR enzyme activity", "setting": "[2]", "result": "clear tendency to inhibit the TrxR activity, even if the changes were not statistically significant"}, {"measurement": "inhibition of TrxR enzyme activity", "setting": "[2]", "result": "about 50%"}, {"measurement": "increase of annexin V fluorescence intensity vs untreated control cells", "setting": "A2780 cells", "result": 5, "unit": "fold"}, {"measurement": "IC50", "setting": "[3]", "result": "12.3 ± 0.17", "unit": "µM"}, {"measurement": "IC50 for PNT1 higher than for A2780 (fold)", "setting": "[3]", "result": 3, "unit": "fold"}]}, {"smiles": "Cc1cccc2[n+]1[Au-]1([O][Au-]3([O]1)[n+]1c(C)cccc1-c1cccc(C)[n+]13)[n+]1c(C)cccc1-2.F[P-](F)(F)(F)(F)F.F[P-](F)(F)(F)(F)F", "note": "[Auoxo6, ((6,6′-dimethyl-2,2′-bipyridine)2Au2(µ-O)2)(PF6)2]", "values": [{"measurement": "increase of proapoptotic Bax protein", "setting": "Bax", "result": "~20", "unit": "%"}, {"measurement": "reduction of oxygen consumption rate (OCR)", "setting": "[1]", "result": 24.7, "unit": "%"}, {"measurement": "cells showing caspase-8 activation", "setting": "caspase-8", "result": "~70", "unit": "%"}, {"measurement": "cells showing caspase-9 activation", "setting": "caspase-9", "result": 75, "unit": "%"}, {"measurement": "effect on TrxR enzyme activity", "setting": "[2]", "result": "clear tendency to inhibit the TrxR activity, even if the changes were not statistically significant"}, {"measurement": "inhibition of TrxR enzyme activity", "setting": "[2]", "result": "about 50%"}, {"measurement": "increase of annexin V fluorescence intensity vs untreated control cells", "setting": "A2780 cells", "result": 10, "unit": "fold"}, {"measurement": "IC50", "setting": "[3]", "result": "18.4 ± 0.3", "unit": "µM"}, {"measurement": "IC50 for PNT1 higher than for A2780 (fold)", "setting": "[3]", "result": "~16", "unit": "fold"}]}]}
